These molecules were tested against C-Raf FL (full length CRAF with Y340E and Y341E activating mutations, co-expressed with h14-3-3 zeta) (Homo sapiens (Human), UniProt P04049, Y340E/Y341E) (assay: In vitro Raf activity determination, AlphaScreen p-MEK readout, c-Raf (C-Raf FL)). Conditions: c-Raf approximately 4 nM, ATP 1 μM, pre-incubation 60 minutes, reaction 1 hour.
C-Raf FL (full length CRAF with Y340E and Y341E activating mutations, co-expressed with h14-3-3 zeta), sequence (P04049 whole entry Y340E/Y341E): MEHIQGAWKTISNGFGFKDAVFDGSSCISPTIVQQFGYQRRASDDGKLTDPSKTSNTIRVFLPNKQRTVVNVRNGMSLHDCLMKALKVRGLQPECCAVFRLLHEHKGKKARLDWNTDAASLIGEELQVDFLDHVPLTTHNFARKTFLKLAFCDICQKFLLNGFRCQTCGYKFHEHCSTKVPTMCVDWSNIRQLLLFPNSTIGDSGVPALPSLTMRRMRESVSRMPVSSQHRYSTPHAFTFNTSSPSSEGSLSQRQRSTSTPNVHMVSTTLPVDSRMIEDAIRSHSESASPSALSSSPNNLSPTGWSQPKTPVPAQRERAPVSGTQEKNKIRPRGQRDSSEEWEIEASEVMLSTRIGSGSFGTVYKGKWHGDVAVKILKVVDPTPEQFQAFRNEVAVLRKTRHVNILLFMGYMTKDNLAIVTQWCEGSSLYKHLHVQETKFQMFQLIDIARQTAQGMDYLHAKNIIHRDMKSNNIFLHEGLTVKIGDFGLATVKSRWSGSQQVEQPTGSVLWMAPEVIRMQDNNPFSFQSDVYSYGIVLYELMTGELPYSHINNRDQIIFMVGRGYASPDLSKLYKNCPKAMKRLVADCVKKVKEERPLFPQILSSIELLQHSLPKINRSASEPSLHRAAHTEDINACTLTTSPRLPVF
C-Raf FL (full length CRAF with Y340E and Y341E activating mutations, co-expressed with h14-3-3 zeta), sequence (P63104 whole entry partner): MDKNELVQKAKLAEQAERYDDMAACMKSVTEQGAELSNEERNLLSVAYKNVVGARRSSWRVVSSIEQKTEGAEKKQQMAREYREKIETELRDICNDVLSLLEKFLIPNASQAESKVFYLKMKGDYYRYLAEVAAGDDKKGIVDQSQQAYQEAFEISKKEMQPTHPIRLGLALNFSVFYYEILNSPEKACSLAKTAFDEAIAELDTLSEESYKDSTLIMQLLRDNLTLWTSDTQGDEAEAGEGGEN
Assay type: biochemical
From the text: Sf9 cells co-expressing both proteins were lysed and subjected to immobilized nickel chromatography and eluted with Imidazole. A second column (StrepII binding column) was used and eluted with desthiobiotin. Protein Tags were removed using Prescission enzyme and the protein was further purified using a flowthrough step to remove tags.
C-Raf TR refers to a truncated C-Raf protein, a Δ1-324 deletion mutant. C-Raf FL refers to the full-length C-Raf protein.
Full length MEK1 with an inactivating K97R ATP binding site mutation is utilized as a RAF substrate. The MEK1 cDNA was subcloned with an N-terminal (his)6 tag into a vector for E. Coli expression. The MEK1 substrate was purified from E. Coli lysate by nickel affinity chromatography followed by anion exchange. The final MEK1 preparation was biotinylated (Pierce EZ-Link Sulfo-NHS-LC-Biotin) and concentrated.
Assay Materials: Assay buffer is 50 mM Tris, pH 7.5, 15 mM MgCl2, 0.01% Bovine Serum Albumin (BSA) and 1 mM dithiothreitol (DTT); Stop buffer is 60 mM ethylenediaminetetraacetic acid (EDTA) and 0.01% Tween® 20; b-Raf (V600E), active; biotinylated Mek, kinase dead; Alpha Screen detection kit (available from PerkinElmer™, #6760617R); Anti phospho-MEK1/2 (available from Cell Signaling Technology, Inc. #9121); 384 well low volume assay plates (White Greiner® plates).
Assay conditions: b-Raf (V600E) approximately 4 pM; c-Raf approximately 4 nM; biotinylated Mek, kinase dead approximately 10 nM; ATP 10 μM for BRAF (V600E) and 1 μM for CRAF; Pre-incubation time with compounds 60 minutes at room temperature; Reaction time 1 or 3 hours at room temperature.
Assay protocol: Raf and biotinylated Mek (kinase dead) were combined at 2× final concentrations in assay buffer (50 mM Tris, pH 7.5, 15 mM MgCl2, 0.01% BSA and 1 mM DTT) and dispensed […] per well in assay plates (Greiner white 384 well assay plates #781207) containing […] of 40× of a Raf kinase inhibitor test compound diluted in 100% DMSO. The plate was incubated for 60 minutes at room temperature. The Raf kinase activity reaction was started by the addition of […] per well of 2×ATP diluted in assay buffer. After 3 hours (b-Raf(V600E)) or 1 hour (c-Raf). The reactions were stopped and the phosphorylated product was measured using a rabbit anti-p-MEK (Cell Signaling, #9121) antibody and the Alpha Screen IgG (ProteinA) detection Kit (PerkinElmer #6760617R), by the addition of […] to the well of a mixture of the antibody (1:2000 dilution) and detection beads (1:2000 dilution of both beads) in Stop/bead buffer (25 mM EDTA, 50 mM Tris, pH 7.5, 0.01% Tween20). The additions were carried out under dark conditions to protect the detection beads from light. A lid was placed on top of the plate and incubated for 1 hour at room temperature, after which the luminescence was read on a PerkinElmer Envision instrument.
`Cc1ccc(NC(=O)c2ccnc(C(C)(F)F)c2)cc1-c1ccc2c(c1)N1CCOC[C@]1(C)C[C@H]2O` (racemic) [Example 27] was tested, and the IC50 was 0.017 nM. Work on `Cc1ccc(NC(=O)c2ccnc(C(F)(F)F)c2)cc1-c1ccc2c(c1)N1CCOCC1CC2N` (racemic) [Example 28, (rac)-N-(3-(6-amino-1,2,4,4a,5,6-hexahydro-[1,4]oxazino[4,3-a]quinolin-9-yl)-4-methylphenyl)-2-(trifluoromethyl)isonicotinamide] yielded an IC50 of 0.059 nM. With `CC(=O)NC1CC2COCCN2c2cc(-c3cc(NC(=O)c4ccnc(C(F)(F)F)c4)ccc3C)ccc21` (racemic) [Example 29, N-(3-(6-acetamido-1,2,4,4a,5,6-hexahydro-[1,4]oxazino[4,3-a]quinolin-9-yl)-4-methylphenyl)-2-(trifluoromethyl)isonicotinamide] the IC50 was 0.17 nM. For `CO[C@@H]1C[C@@H]2COCCN2c2cc(-c3cc(NC(=O)c4ccnc(C(F)(F)F)c4)ccc3C)ccc21` (racemic) [Example 30, (rac)-(trans)-N-(3-(6-methoxy-1,2,4,4a,5,6-hexahydro-[1,4]oxazino[4,3-a]quinolin-9-yl)-4-methylphenyl)-2-(trifluoromethyl)isonicotinamide], the IC50 was 0.18 nM. Molecule `CO[C@@H]1C[C@@H]2COCCN2c2cc(-c3cc(NC(=O)c4ccnc(C(C)(F)F)c4)cnc3C)ccc21` (racemic) [Example 31, (rac)-(trans)-2-(1,1-difluoroethyl)-N-(5-(6-methoxy-1,2,4,4a,5,6-hexahydro-[1,4]oxazino[4,3-a]quinolin-9-yl)-6-methylpyridin-3-yl)isonicotinamide] has an IC50 of 0.033 nM. `CO[C@@H]1C[C@@H]2COCCN2c2cc(-c3cc(NC(=O)c4cccc(C(F)(F)F)c4)cnc3C)ccc21` (racemic) [Example 32, (rac)-(trans)-N-(5-(6-methoxy-1,2,4,4a,5,6-hexahydro-[1,4]oxazino[4,3-a]quinolin-9-yl)-6-methylpyridin-3-yl)-3-(trifluoromethyl)benzamide] was tested, and the IC50 was 0.023 nM. Molecule `COC1CC2COCCN2c2cc(-c3cc(NC(=O)c4ccnc(C(F)(F)F)c4)ccc3C)cnc21` (racemic) [Example 34] has an IC50 of 0.0087 nM. In the case of `Cc1ccc(NC(=O)c2ccnc(C(F)(F)F)c2)cc1-c1cnc2c(c1)N1CCOC[C@H]1C[C@@H]2O` (racemic) [Example 37, (rac)-(cis)-N-(3-(6-hydroxy-1,2,4,4a,5,6-hexahydro-[1,4]oxazino[4,3-a][1,5]naphthyridin-9-yl)-4-methylphenyl)-2-(trifluoromethyl)isonicotinamide], the IC50 is reported as 0.0081 nM. Molecule `Cc1ncc(NC(=O)c2cccc(C(F)(F)F)c2)cc1-c1cnc2c(c1)N1CCOC[C@H]1C[C@@H]2O` (racemic) [Example 38, (rac)-(cis)-N-(5-(6-hydroxy-1,2,4,4a,5,6-hexahydro-[1,4]oxazino[4,3-a][1,5]naphthyridin-9-yl)-6-methylpyridin-3-yl)-3-(trifluoro-methyl)benzamide] has an IC50 of 0.03 nM. `Cc1ccc(NC(=O)c2ccnc(C(F)(F)F)c2)cc1-c1cnc2c(c1)N1CCOC[C@H]1C[C@@]2(C)O` (racemic) [Example 39, (rac)-(trans)-N-(3-(6-hydroxy-6-methyl-1,2,4,4a,5,6-hexahydro-[1,4]oxazino[4,3-a][1,5]naphthyridin-9-yl)-4-methylphenyl)-2-(trifluoromethyl)isonicotinamide] showed an IC50 of 0.0023 nM. Work on `Cc1ccc(NC(=O)c2ccnc(C(F)(F)F)c2)cc1-c1cnc2c(c1)N1CCOC[C@H]1C[C@]2(C)O` (racemic) [Example 40, (rac)-(cis)-N-(3-(6-hydroxy-6-methyl-1,2,4,4a,5,6-hexahydro-[1,4]oxazino[4,3-a][1,5]naphthyridin-9-yl)-4-methylphenyl)-2-(trifluoromethyl)isonicotinamide] yielded an IC50 of 0.066 nM. Molecule `Cc1ccc(NC(=O)c2ccnc(C(C)(F)F)c2)cc1-c1cnc2c(c1)N1CCOC[C@H]1C[C@@]2(C)O` (racemic) [Example 41, (rac)-(trans)-2-(1,1-difluoroethyl)-N-(3-(6-hydroxy-6-methyl-1,2,4,4a,5,6-hexahydro-[1,4]oxazino[4,3-a][1,5]naphthyridin-9-yl)-4-methylphenyl)isonicotinamide] has an IC50 of 0.0099 nM. In the case of `Cc1ccc(NC(=O)c2ccnc(C(C)(F)F)c2)cc1-c1cnc2c(c1)N1CCOC[C@H]1C[C@]2(C)O` (racemic) [Example 42, (rac)-(cis)-2-(1,1-difluoroethyl)-N-(3-(6-hydroxy-6-methyl-1,2,4,4a,5,6-hexahydro-[1,4]oxazino[4,3-a][1,5]naphthyridin-9-yl)-4-methylphenyl)isonicotinamide], the IC50 is reported as 0.015 nM. `Cc1ncc(NC(=O)c2cccc(C(F)(F)F)c2)cc1-c1cnc2c(c1)N1CCOC[C@H]1C[C@@]2(C)O` (racemic) [Example 43, (rac)-(trans)-N-(5-(6-hydroxy-6-methyl-1,2,4,4a,5,6-hexahydro-[1,4]oxazino[4,3-a][1,5]naphthyridin-9-yl)-6-methylpyridin-3-yl)-3-(trifluoromethyl)benzamide] gave an IC50 of 0.0082 nM. `Cc1ncc(NC(=O)c2cccc(C(F)(F)F)c2)cc1-c1cnc2c(c1)N1CCOC[C@H]1C[C@]2(C)O` (racemic) [Example 44, (rac)-(cis)-N-(5-(6-hydroxy-6-methyl-1,2,4,4a,5,6-hexahydro-[1,4]oxazino[4,3-a][1,5]naphthyridin-9-yl)-6-methylpyridin-3-yl)-3-(trifluoromethyl)benzamide] was tested, and the IC50 was 0.037 nM. For `Cc1ccc(NC(=O)c2ccnc(C(F)(F)F)c2)cc1-c1ccc2c(c1)N1CCOCC1c1cn(C)nc1-2` (racemic) [Example 45, (rac)-N-(4-methyl-3-(2-methyl-3b,4,6,7-tetrahydro-2H-[1,4]oxazino[4,3-a]pyrazolo[4,3-c]quinolin-10-yl)phenyl)-2-(trifluoromethyl)isonicotinamide], the IC50 was 0.17 nM. Work on `Cc1ccc(NC(=O)c2ccnc(C(C)(F)F)c2)cc1-c1cc2c(nn1)[C@H](O)C[C@@H]1COCCN21` (racemic) [Example 46, (rac)(trans)-2-(1,1-difluoroethyl)-N-(3-(5-hydroxy-5,6,6a,7,9,10-hexahydropyridazino[3′,4′:5,6]pyrido[2,1-c][1,4]oxazin-2-yl)-4-methylphenyl)isonicotinamide] yielded an IC50 of 0.014 nM. Molecule `Cc1ncc(NC(=O)c2cccc(C(F)(F)F)c2)cc1-c1cc2c(nn1)[C@H](O)C[C@@H]1COCCN21` (racemic) [Example 47, (rac)-(trans)-N-(5-(5-hydroxy-5,6,6a,7,9,10-hexahydropyridazino[3′,4′:5,6]pyrido[2,1-c][1,4]oxazin-2-yl)-6-methylpyridin-3-yl)-3-(trifluoromethyl)benzamide] has an IC50 of 0.073 nM. For `Cc1ccc(NC(=O)c2ccnc(C(F)(F)F)c2)cc1-c1cc2c(nn1)[C@H](O)C[C@@H]1COCCN21` (racemic) [Example 48, (rac)-(trans)-N-(3-(5-hydroxy-5,6,6a,7,9,10-hexahydropyridazino[3′,4′:5,6]pyrido[2,1-c][1,4]oxazin-2-yl)-4-methylphenyl)-2-(trifluoromethyl)isonicotinamide], the IC50 was 0.049 nM. Molecule `Cc1ccc(NC(=O)c2ccnc(C(F)(F)F)c2)cc1-c1ccc2c(c1)N1CCOCC1C(CO)(CO)C2` (racemic) [Example 49, (rac)-N-(3-(5,5-bis(hydroxymethyl)-1,2,4,4a,5,6-hexahydro-[1,4]oxazino[4,3-a]quinolin-9-yl)-4-methylphenyl)-2-(trifluoromethyl)isonicotinamide] has an IC50 of 0.021 nM. `Cc1ccc(NC(=O)c2ccnc(C(C)(F)F)c2)cc1-c1ccc2c(c1)N1CCOCC1C(CO)(CO)C2` (racemic) [Example 50, (rac)-N-(3-(5,5-bis(hydroxymethyl)-1,2,4,4a,5,6-hexahydro-[1,4]oxazino[4,3-a]quinolin-9-yl)-4-methylphenyl)-2-(1,1-difluoroethyl)isonicotinamide] was tested, and the IC50 was 0.013 nM. `Cc1ncc(NC(=O)c2cccc(C(F)(F)F)c2)cc1-c1ccc2c(c1)N1CCOCC1C(CO)(CO)C2` (racemic) [Example 51, (rac)-N-(5-(5,5-bis(hydroxymethyl)-1,2,4,4a,5,6-hexahydro-[1,4]oxazino[4,3-a]quinolin-9-yl)-6-methylpyridin-3-yl)-3-(trifluoromethyl)benzamide] showed an IC50 of 0.036 nM.
